{
  "source": "patent US20180016289A1",
  "about": "“REDOX-SENSITIVE VESICLES” (THE ROYAL INSTITUTION FOR THE ADVANCEMENT OF …, priority 2015, published 2018)",
  "test": "Cyclic voltammetry (CV) in acetonitrile",
  "format": "physicochemical",
  "details": "0.1 M TBA-PF6, glassy carbon electrode, 50 mV.s^−1, Ag wire coated with AgCl reference, 1 mM",
  "experimental": "FIG. 6: Cyclic voltammetry (CV) measurements conducted in acetonitrile using 0.1 M of TBA-PF6 as the electrolyte. All the measurements were conducted at a scan rate of 50 mV.s^−1 using a glassy carbon (Ø=3 mm) electrode as a working electrode, Pt wire as a counter electrode and Ag wire coated with AgCl as a reference electrode. (A) Voltammogram of a 1 mM ferroceneacetic acid solution (B) voltammogram of a 1 mM phospholipid 2 solution. (C) Voltammogram of a 1 mM phospholipid 3 solution.\nFIG. 14: (A) Synthesis of Fc-DSP (3) from ferroceneacetic acid (1) and DSPE (2) using a detailed reaction and another graphical representation that are used in FIGS. 15-17 (B) CV measurements conducted in acetonitrile using 0.1 M of TBA-PF6 as the electrolyte. All measurements were conducted at a scan rate of 50 mV.s^−1 using a glassy carbon (Ø=3 mm) electrode as a working electrode, Pt wire as a counter electrode and Ag wire coated with AgCl as a reference electrode. (black) Voltammogram of a 1 mM phospholipid 2 solution. (red) Voltammogram of 1 mM phospholipid 3 solution.\nCyclic voltammetry (CV) and scanning electrochemical microscopy (SECM) measurements were performed with an HEKA Electrochemical Probe Scanner 3 or Probe Scanner 1 (HEKA Elektronik Dr. Schulze GmbH, Germany). […]",
  "data": [
    {"substance": "ferroceneacetic acid [compound 1]", "values": [
      {"measurement": "reversible oxidation reduction of the ferrocene (potential)", "value": 0.42, "unit": "V"}
    ]}
  ]
}
